Source: patent US6028107A, “Orthomolecular medical use of L-citrulline for vasoprotection, relaxative smooth muscle tone and cell protection” (priority 1997, dated 2000)
Entries after “also recorded” stand apart in the source; their conditions may differ.

What was measured:
human platelets = details: 300 μM extracellular; L-arginine 30 μM; cited from earlier work
muscle = details: oral supplementation daily; cited from earlier work
hippocampal brain tissue = details: extracellular creatine increased by 3 mM; cited from earlier work
arterial injury = details: 2.25% in the drinking water, long-term; cited from earlier work
migraine aura = details: inhalation of small amounts; cited from earlier work
platelet activity = details: cited from earlier work
migraine pains = assay: Migraine attack, oral L-citrulline capsules (Example 4); format: in vivo, human; details: 2.7 grams, again about 1 hour later, third dose 6 hours later
Protocol: […] Their body weight was 59 kg. The subject gave a history of migraine pains with and without aura for about 15 years. Currently, the migraine pains were recurring about once to a few times weekly. Their parent had experienced migraine headaches for many years.
Shortly after the onset of a severe headache attack, the subject ingested 2.7 grams of L-citrulline, followed by another 2.7 grams about 1 hour later. They ingested a third dose of the same amount 6 hours later.

[1] = Plasma ultrafiltrate L-arginine level after oral L-citrulline (Example 1); format: in vivo, human
Protocol: A novel […] method for the quantitative assay of free L-arginine in blood plasma was developed. The method measures the color product from monosubstituted guanidines without and with L-arginase incubation to destroy the arginine and the potential guanido color product that would be derived from L-arginine. The photometric decrease in guanido color product measures specifically the concentration of L-arginine. The L-arginine methodology was applied to ultrafiltrates of blood plasma after ultrafiltrations of separated plasma samples were done at 4° Celsius.
Blood plasma levels after 9 to 10 hours of overnight fasting averaged 83.0±1.1 μM (mean±SD of 3 determinations). Two hours after ingestion of 3.0 grams of L-citrulline in capsular form, plasma L-arginine level rose by […] to 132.7 μM. Overnight fasting plasma levels of L-arginine measured 125.2, 98.1, 90.8, 114.2, and 120.0 μM after ingestion of L-citrulline for 6 days at 6.0 grams, for 13 days at 2.4 grams, for 6 days at 3.4 grams, for 7 days at 6.8 grams, and for 2 days at 8.5 grams, respectively, in 2 divided doses (morning and nightly).

[2] = plasma-borne; cited from earlier work
[3] = Tolerability during the study of Example 1; format: in vivo, human
Description: They remained on their usual regular diet and continued working during the study.

[4] = intestinal-derived, portal venous blood; cited from earlier work
[5] = Total bleeding time, forearm template method (Example 2); format: in vivo, human; details: after 4 weeks of 5.4 grams daily in 2 divided doses
Protocol: The same subject that was studied in Example 1 was studied by total bleeding time determinations before and during ingestion of daily doses of L-citrulline, in two divided subdoses. Forearm bleeding times were done by 3 to 5 mm cuts about 1 mm deep made perpendicular to the fold of the elbow during template methodology and a sphygmomanometer cuff maintained near 40 mm Hg pressure. Control bleeding times were 51/2 minutes. Bleeding time rose to 131/2 minutes after 2 days of ingestion of 8.5 grams daily. Bleeding time was prolonged at 13 minutes after 4 weeks of ingestion of 5.4 grams of L-citrulline daily in 2 divided doses.

endothelial c-NOS [6] = details: L-glutamine 600 μM; above 10 μM to 1,000 μM and more L-arginine; cited from earlier work
[7] = system: endothelium-dependent vasodilation; details: infusion, hypercholesterolemia; cited from earlier work
creatine biosynthesis = details: dietary, man; cited from earlier work
[8] = system: glomerular hyperfiltration; details: long-term oral, marked amounts; cited from earlier work
[9] = oral 3-gram single doses, healthy humans; cited from earlier work
endothelial c-NOS [10] = details: plasma L-arginine above normal fasting about 75 to 90 μM; cited from earlier work
[11] = cited from earlier work
uterine muscle strips = details: added to extracellular fluid; cited from earlier work
spermatocytes = details: oral 4 to 20 grams daily; cited from earlier work
[12] = rats, parenteral injection; cited from earlier work
[13] = system: oligemic vasoconstriction; details: rats; cited from earlier work
[14] = system: purified endothelial c-NOS; details: purified enzyme in vitro; read-out: apparent Michaelis constant (Km); cited from earlier work

NCCC[C@H](N)C(=O)O [L-ornithine]
effect on L-arginine uptake (human platelets): inhibitory

NCCCC[C@H](N)C(=O)O [L-lysine]
effect on L-arginine uptake (human platelets): inhibitory

CN(CC(=O)O)C(=N)N [creatine]
muscle fatigue with physical exercise (muscle): lessened muscle fatigue | muscle stores of free creatine and phosphocreatine (muscle): greater muscle stores of free creatine and phosphocreatine | neurocyte viabilities after anoxic periods (hippocampal brain tissue): greater neurocyte viabilities | neuronal free creatine and phosphocreatine levels (hippocampal brain tissue): large increases in neuronal free creatine and phosphocreatine levels

Cl.N=C(N)NCCC[C@H](N)C(=O)O [L-arginine hydrochloride]
increase of plasma arginine levels (arterial injury): about 2.6 times | neoendothelium-dependent arterial muscle relaxation (arterial injury): enhanced neoendothelium-dependent arterial muscle relaxation | thickening after arterial injury (arterial injury): reduced thickening

CCCCCON=O [amyl nitrite]
migraine aura (migraine aura): temporarily reversed migraine aura in some cases

CC(=O)Oc1ccccc1C(=O)O [aspirin, acetylsalicylic acid]
total bleeding time (platelet activity; low-dose / small therapeutic doses orally): prolongs the total bleeding time; also recorded: prolonged | platelet activity (platelet activity; low-dose intake): inhibits platelet activity

NC(=O)NCCC[C@H](N)C(=O)O [L-citrulline]
migraine pain (migraine pains): markedly lessened in intensity and in duration | nausea during the migraine attack (migraine pains): Much less nausea | rise of plasma L-arginine level ([1]; 2 hours after single oral 3.0 grams, capsular form): 62.4% | elevation of blood plasma L-arginine versus ingestion of equivalent amounts of L-arginine ([1]; comparison with L-arginine as single amino acid or in protein meals): more efficient and longer lasting | blood plasma levels of L-arginine after overnight fasting 9 to 10 hours ([1]; daily dosage in two divided subdoses): greater blood plasma levels of L-arginine even after overnight fasting | blood plasma concentrations of free L-arginine ([1]; single oral doses of 3.0 grams or more, capsule form): promptly raised to much higher levels | blood-brain barrier passage [2]: readily passes the blood-brain barrier | adverse symptoms or untoward signs [3]: No adverse symptoms or untoward signs were experienced | liver uptake [4]: Without appreciable liver uptake | Bleeding time [5]: 13 min

N=C(N)NCCC[C@H](N)C(=O)O [L-arginine]
endothelial production of nitric oxide by c-NOS versus extracellular L-arginine (endothelial c-NOS [6]): directly dependent upon the extracellular concentrations of L-arginine above 10 μM to levels of 1,000 μM and more without apparent saturation of the enzyme | impaired endothelium-dependent vasodilation [7]: impaired endothelium-dependent vasodilation is corrected | creatine biosynthesis and pools of creatine and phosphocreatine in muscle and nerve (creatine biosynthesis): leads to more creatine biosynthesis and slowly expansible pools of creatine and phosphocreatine | glomerular hyperfiltration and abnormal filtration fraction hemodynamics [8]: prevents the glomerular hyperfiltration and abnormal filtration fraction hemodynamics | proteinuria [8]: ameliorates the proteinuria | plasma citrulline levels [9]: without a change in plasma citrulline levels | endothelial nitric oxide production (endothelial c-NOS [10]): augments endothelial nitric oxide production | time of peak plasma arginine level ([11]; 24.8 grams of L-arginine (30 grams of arginine hydrochloride)): about 1 hour | time to return to near fasting values ([11]; 24.8 grams of L-arginine): 3 h | peak plasma arginine relative to fasting values ([11]; 24.8 grams of L-arginine, fasting 90±6 μM): about 3.6 times | muscle quiescence (uterine muscle strips): muscle quiescence | muscle relaxation (uterine muscle strips): dose-dependent muscle relaxation | nitric oxide generation (uterine muscle strips): nitric oxide generation | total sperm counts and motility rates (spermatocytes): may improve total sperm counts and motility rates | plasma half-life [12]: about 1 hour | oligemic vasoconstriction following cortical spreading depression [13]: reduces the oligemic vasoconstriction | Km [14]: ~6 µM

NC(=O)CC[C@H](N)C(=O)O [L-glutamine]
effect on L-arginine uptake (human platelets): inhibitory
